From patent US20200179369A1, “TREATMENT OF DIABETIC NEPHROPATHY” (TAKEDA GMBH, priority 2015, published 2020)

Test system: uninephrectomized db/db mice
Assay: Diabetic nephropathy in uninephrectomized db/db mice, 8 week treatment starting 12 weeks after the uninephrectomy
Format: in vivo
Conditions: 8 weeks starting 12 weeks after uninephrectomy
Description: The experimental protocol is similar to the experimental protocol described above with the exception that the 8 week treatment with Compound A or irbesartan was started not already at 4 weeks after the uninephrectomy, but only 12 weeks after the uninephrectomy (i.e. when the increase of urinary albumin/creatinine ratio (UACR) is already in a much more advanced stage). Roflumilast was not used as a comparator in this experiment.
Compound A (1, 3 and 10 mg/kg, QD) and irbesartan (50 and 100 mg/kg, QD) were suspended in 0.5% methyl cellulose solution and orally administered to mice for 8 weeks starting 12 weeks after the uninephrectomy.
For evaluation of the effects of Compound A, statistical differences between vehicle- and Compound A treated groups were analyzed with one-tailed Williams' test for GHB, PG and BW and one-tailed Shirley-Williams' test for UACR. For irbesartan, statistical differences between vehicle- and irbesartan treated groups were analyzed with one-tailed Williams' test for UACR, GHb, PG and BW. The P-values less than 0.025 were considered statistically significant in one-tailed Williams' test or one-tailed Shirley-Williams' test.

Question: What does the source list for `CCOc1cc2c(cc1OC)C(c1ccc(=O)n(C)c1)=N[C@@H]1CC[C@@H](O)C[C@H]21` [Compound A, 5-((2R,4aR,10bR)-9-Ethoxy-2-hydroxy-8-methoxy-1,2,3,4,4a,10b-hexahydro-phenanthridin-6-yl)1-methyl-1H-pyridin-2-one]?
Answer: effect on urinary albumin/creatinine ratio (UACR) (1 mg/kg QD oral): suppressed the increase of UACR; effect on urinary albumin/creatinine ratio (UACR) (3 mg/kg QD oral): reduced the UACR in the 3 mg/kg and 10 mg/kg group below the value at the beginning of the 8 weeks treatment period; effect on glucose plasma levels (PG) (10 mg/kg QD oral): statistical significant effect; effect on glycosylated hemoglobin (GHb) (10 mg/kg QD oral): statistical significant effect; effect on urinary albumin/creatinine ratio (UACR) (10 mg/kg QD oral): reduced the UACR in the 3 mg/kg and 10 mg/kg group below the value at the beginning of the 8 weeks treatment period; effect on body weight (BW) (1, 3 and 10 mg/kg QD oral): Neither Compound A nor Irbesartan affected the body weight; effect on glucose plasma levels (PG) (1, 3 and 10 mg/kg QD oral): reduced GHb and PG in a dose-dependant manner; effect on glycosylated hemoglobin (GHb) (1, 3 and 10 mg/kg QD oral): reduced GHb and PG in a dose-dependant manner
